For 31 molecules, inhibition results are on record in patent US20230134428A1, “FUSED HETEROARYL COMPOUNDS, AND METHODS THEREOF FOR TREATING DISEASES, DISORDERS, AND CONDITIONS RELATING TO ABERRANT FUNCTION OF A SODIUM CHANNEL” (Praxis Precision Medicines, Inc., priority 2016, published 2023).

A value given as a limit tells only on which side of the number the result lay.

The target in one experiment is T1, human NaV1.6 (hNaV1.6) (Homo sapiens, UniProt Q9UQD0).
T1 construct: expressed in transfected cells; host or cells: HEK-293 (G418 selection)
T1 sequence (Q9UQD0 whole entry): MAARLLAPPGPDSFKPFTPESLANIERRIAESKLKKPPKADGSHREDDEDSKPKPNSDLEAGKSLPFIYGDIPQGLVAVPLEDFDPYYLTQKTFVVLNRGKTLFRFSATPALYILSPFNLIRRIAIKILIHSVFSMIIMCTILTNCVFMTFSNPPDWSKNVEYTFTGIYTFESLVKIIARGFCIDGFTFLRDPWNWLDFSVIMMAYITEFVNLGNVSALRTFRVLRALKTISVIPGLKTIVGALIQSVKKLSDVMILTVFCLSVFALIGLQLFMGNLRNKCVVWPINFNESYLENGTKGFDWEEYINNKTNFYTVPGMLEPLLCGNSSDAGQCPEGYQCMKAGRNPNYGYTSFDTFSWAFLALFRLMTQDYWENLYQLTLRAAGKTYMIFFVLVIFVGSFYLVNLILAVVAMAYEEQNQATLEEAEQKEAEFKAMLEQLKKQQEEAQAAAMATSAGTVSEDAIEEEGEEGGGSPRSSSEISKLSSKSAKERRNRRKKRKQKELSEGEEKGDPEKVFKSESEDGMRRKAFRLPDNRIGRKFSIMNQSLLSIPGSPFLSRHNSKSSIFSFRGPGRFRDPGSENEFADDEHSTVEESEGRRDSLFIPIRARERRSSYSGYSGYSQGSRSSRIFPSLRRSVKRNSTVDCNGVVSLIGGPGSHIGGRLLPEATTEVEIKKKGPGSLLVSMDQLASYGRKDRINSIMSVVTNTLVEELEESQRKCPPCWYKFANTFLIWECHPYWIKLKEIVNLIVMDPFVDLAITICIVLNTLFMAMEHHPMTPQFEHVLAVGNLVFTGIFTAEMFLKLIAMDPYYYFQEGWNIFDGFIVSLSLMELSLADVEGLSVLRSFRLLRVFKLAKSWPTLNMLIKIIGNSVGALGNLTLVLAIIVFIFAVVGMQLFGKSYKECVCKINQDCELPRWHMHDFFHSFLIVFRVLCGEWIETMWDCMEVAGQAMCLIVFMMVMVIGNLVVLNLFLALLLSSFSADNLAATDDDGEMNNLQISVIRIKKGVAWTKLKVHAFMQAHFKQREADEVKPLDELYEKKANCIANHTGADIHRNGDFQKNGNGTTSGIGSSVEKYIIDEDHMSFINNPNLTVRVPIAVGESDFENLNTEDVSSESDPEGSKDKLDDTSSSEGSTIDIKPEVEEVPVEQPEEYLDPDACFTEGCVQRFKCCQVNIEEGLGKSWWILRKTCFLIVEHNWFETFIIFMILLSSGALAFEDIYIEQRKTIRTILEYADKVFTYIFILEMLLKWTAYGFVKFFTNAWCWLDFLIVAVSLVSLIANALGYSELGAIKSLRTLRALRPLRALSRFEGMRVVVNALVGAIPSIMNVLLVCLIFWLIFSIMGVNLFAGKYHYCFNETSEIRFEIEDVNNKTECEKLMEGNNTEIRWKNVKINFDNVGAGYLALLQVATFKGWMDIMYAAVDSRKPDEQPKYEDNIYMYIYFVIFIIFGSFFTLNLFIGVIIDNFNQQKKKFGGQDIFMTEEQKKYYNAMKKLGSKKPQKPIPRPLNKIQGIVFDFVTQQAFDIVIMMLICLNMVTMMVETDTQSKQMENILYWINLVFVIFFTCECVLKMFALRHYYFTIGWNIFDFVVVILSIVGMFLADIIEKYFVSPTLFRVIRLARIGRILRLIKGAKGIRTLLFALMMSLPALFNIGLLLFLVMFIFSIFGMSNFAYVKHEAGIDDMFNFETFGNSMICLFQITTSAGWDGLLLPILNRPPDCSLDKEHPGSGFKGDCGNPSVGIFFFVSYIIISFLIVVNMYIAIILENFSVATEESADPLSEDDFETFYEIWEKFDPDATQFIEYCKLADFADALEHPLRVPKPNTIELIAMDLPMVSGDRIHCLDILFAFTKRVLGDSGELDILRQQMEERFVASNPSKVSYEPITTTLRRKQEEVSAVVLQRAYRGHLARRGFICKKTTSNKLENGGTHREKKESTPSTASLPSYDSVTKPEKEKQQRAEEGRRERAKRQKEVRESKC
The experiment in a line: Modulation of late sodium current (INaL), PatchXpress electrophysiology. The class given is cell-based. The note with it: HEK293, read-out: INaL v1.6 (1 µM, % Inhibition). On the procedure: Functional characterization of exemplary compounds to modulate INaL expressed by the NaV1.6 voltage-gated sodium channel was accomplished using the PatchXpressTM high throughput electrophysiology platform (Molecular Devices, Sunnyvale, CA). HEK-293 cells expressing recombinant, human NaV1.6 (hNaV1.6)were grown in DMEM/high-glucose Dulbecco's modified, 10% FBS, 2 mM sodium pyruvate, 10 mM HEPES and 400 μg/mL G418. Cells were grown to 50% - 80% confluency prior to harvesting. Trypsinized cells were washed, allowed to recover for 1 hour and then resuspended in extracellular recording solution at a concentration of 1 × 10^6 cells/ml. The onboard liquid handling facility of the PatchXpress was used for dispensing cells and applying test compounds. Nav late currents were evoked by the application of 300 nM ATX-II. […] INaL amplitude and stability were determined by analyzing the mean current amplitude over the final 20 ms of […] pulse. […] Percent steady-state inhibition of INaL was calculated as: [([…])]*100, where INaL_compound and INaL _control represent INaL recorded in the presence or absence of compound, respectively.
What is called inhibition is the change of the read-out against control, counted positive when it falls. Take `COCc1cc(OC(F)(F)F)ccc1-c1cnc2cnc(C(F)(F)F)n2c1` [Compound 12]: the inhibition at 1 µM was 30 to 70%.
Still for that read-out and setting: to `FC1(F)CC(c2ncc3ncc(-c4ccc(OC(F)(F)F)cc4)cn23)C1` [Compound 24] belongs less than 30%; to `Fc1cc(-c2cn3c(C(F)(F)F)ncc3cn2)cnc1OCC(F)(F)F` [Compound 23, 6-[5-fluoro-6-(2,2,2-trifluoroethoxy)-3-pyridyl]-3-(trifluoromethyl)imidazo[1,5-a]pyrazine], 30 to 70%; to `N#Cc1nc(C(F)(F)F)n2cc(-c3ccc(OCC(F)(F)F)nc3)ccc12` [Compound 19], more than 70%.
On the same count and under the same terms, to `FC(F)(F)c1ccc(-c2cnc3cnc(C(F)(F)F)n3c2)cc1` [Compound 18] belongs less than 30%; to `N#Cc1nc(C(F)(F)F)n2cc(-c3ccc(C4(C#N)CC4)cc3)ccc12` [Compound 20], less than 30%; to `N#Cc1nc(C(F)F)n2cc(-c3ccc(OC(F)(F)F)cc3)ccc12` [Compound 21], 30 to 70%.

Staying with this experiment, now noted: HEK293; 1 µM compound; HEK-293 cells expressing hNaV1.6; late current evoked by 300 nM ATX-II; read-out: INaL v1.6 (1 µM, % Inhibition).
With `N#CC1(c2ccc(-c3cn4c(C(F)(F)F)ncc4cn3)cc2)CC1` [Compound 22], the inhibition at 1 µM is 30 to 70%.
The same measure, in the same setting: to `FC(F)(F)Oc1ccc(-c2cn3c(C(F)(F)F)ncc3cn2)cc1` [Compound 7] belongs 30 to 70%; to `N#Cc1nc(C(F)(F)F)n2cc(-c3ccc(OC(F)(F)F)cc3)ncc12` [Compound 27], more than 70%.
In the case of `FC(F)(F)COc1ccc(-c2ccc3cnc(C(F)(F)F)n3c2)cn1` [Compound 2], the inhibition at 1 µM lay in the range of 30 to 70%.
On the same count and under the same terms, the result for `COCc1cc(OC(F)(F)F)ccc1-c1ccc2c(C#N)nc(C(F)(F)F)n2c1` [Compound 16] reads more than 70%; that for `N#CC1(c2ccc(-c3ccc4cnc(C(F)(F)F)n4c3)cc2)CC1` [Compound 4], 30 to 70%; that for `N#Cc1nc(C(F)(F)F)n2cc(-c3ccc(OC(F)(F)F)cc3)cnc12` [Compound 11], less than 30%.
Consider `COCc1cc(OC(F)(F)F)ccc1-c1cn2c(C(F)(F)F)nc(C#N)c2cn1` [Compound 28], for which the inhibition at 1 µM was more than 70%.
Still for that read-out and setting: the result for `N#CC1(c2ccc(-c3cnc4cnc(C(F)(F)F)n4c3)cc2)CC1` [Compound 13] reads less than 30%.
Regarding `FC(F)(F)Oc1ccc(-c2cnc3cnc(C(F)(F)F)n3c2)cc1` [Compound 8], the inhibition at 1 µM lay in the range of 30 to 70%.
The same measure, in the same setting: the result for `N#Cc1nc(C(F)(F)F)n2nc(-c3ccc(OC(F)(F)F)cc3)ccc12` [Compound 25] reads less than 30%.
On the same count and under the same terms, to `N#Cc1nc(C(F)(F)F)n2cc(-c3cnc(OCC(F)(F)F)c(F)c3)ccc12` [Compound 33, 6-[5-fluoro-6-(2,2,2-trifluoroethoxy)-3-pyridyl]-3-(trifluoromethyl)imidazo[1,5-a]pyridine-1-carbonitrile] belongs more than 70%.
In the case of `N#Cc1nc(C2CC2(F)F)n2cc(-c3ccc(OC(F)(F)F)cc3)ccc12` (stereo not shown) [Compound 30], the inhibition at 1 µM is more than 70%.
As for `FC(F)c1ncc2ncc(-c3ccc(OC(F)(F)F)cc3)cn12` [Compound 10], the inhibition at 1 µM was less than 30%.
In the case of `N#Cc1nc(C(F)(F)F)n2cc(-c3ccc(C(F)(F)F)cc3)ncc12` [Compound 29], the inhibition at 1 µM was more than 70%.
With `COCc1cc(OC(F)(F)F)ccc1-c1cn2c(C(F)(F)F)ncc2cn1` [Compound 15], the inhibition at 1 µM was more than 70%.
Turning to `FC(F)(F)Oc1ccc(-c2ccc3cnc(C4CC4(F)F)n3c2)cc1` (stereo not shown) [Compound 26], the inhibition at 1 µM is 30 to 70%.
Still for that read-out and setting: to `COC(C)(C)c1ccc(-c2ccc3cnc(C(F)(F)F)n3c2)cc1` [Compound 3] belongs 30 to 70%.
Regarding `Cc1nc(C(F)(F)F)n2cc(-c3ccc(OC(F)(F)F)cc3)cnc12` [Compound 14], the inhibition at 1 µM is 30 to 70%.
Consider `COc1cc(OC(F)(F)F)ccc1-c1ccc2cnc(C(F)(F)F)n2c1` [Compound 1], for which the inhibition at 1 µM was more than 70%.
For `FC(F)(F)Oc1ccc(-c2ccc3cnc(C(F)(F)F)n3n2)cc1` [Compound 9], the inhibition at 1 µM lay in the range of 30 to 70%.
Still for that read-out and setting: the result for `COc1cc(C2(C#N)CC2)ccc1-c1cnc2cnc(C(F)(F)F)n2c1` [Compound 17] reads less than 30%; that for `Fc1cc(-c2cnc3cnc(C(F)(F)F)n3c2)cnc1OCC(F)(F)F` [Compound 32, 3-[5-fluoro-6-(2,2,2-trifluoroethoxy)-3-pyridyl]-6-(trifluoromethyl)imidazo[1,5-a]pyrimidine], 30 to 70%; that for `N#Cc1nc(C(F)(F)F)n2cc(-c3cnc(OCC(F)(F)F)c(F)c3)ncc12` [Compound 31, 6-[5-fluoro-6-(2,2,2-trifluoroethoxy)-3-pyridyl]-3-(trifluoromethyl)imidazo[1,5-a]pyrazine-1-carbonitrile], 30 to 70%.
